Results on five molecules are retold here after patent publication US20060057614A1 (priority 2004, published 2006).

One test has as its target α3β2 nAChR (Homo sapiens, UniProt P17787+P32297). Particulars: cited from earlier work.
Another test concerns the target α4β2 nAChR (Homo sapiens, UniProt P17787+P43681). Particulars: cited from earlier work.
The next test has as its target α7nAChR (Homo sapiens, UniProt P36544). Particulars: cited from earlier work.
For the next test, the target named is α1β1γδ nAChR (Homo sapiens, UniProt P02708+P07510+Q07001). Particulars: cited from earlier work.
Sequence of α1β1γδ nAChR (P11230 24-501): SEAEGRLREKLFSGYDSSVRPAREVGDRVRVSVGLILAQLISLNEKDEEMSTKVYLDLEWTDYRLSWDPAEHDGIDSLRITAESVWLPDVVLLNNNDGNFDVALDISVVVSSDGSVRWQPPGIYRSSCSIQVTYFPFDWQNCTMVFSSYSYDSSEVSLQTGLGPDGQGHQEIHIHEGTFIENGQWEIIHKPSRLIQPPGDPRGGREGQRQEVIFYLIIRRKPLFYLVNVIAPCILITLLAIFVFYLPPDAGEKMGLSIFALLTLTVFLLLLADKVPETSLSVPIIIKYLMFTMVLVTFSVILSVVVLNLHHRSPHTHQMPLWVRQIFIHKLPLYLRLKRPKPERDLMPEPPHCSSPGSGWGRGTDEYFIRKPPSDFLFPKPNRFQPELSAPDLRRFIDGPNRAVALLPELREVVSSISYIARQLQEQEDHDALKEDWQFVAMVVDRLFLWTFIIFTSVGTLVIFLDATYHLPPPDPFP
Sequence of α1β1γδ nAChR (P02708 21-457): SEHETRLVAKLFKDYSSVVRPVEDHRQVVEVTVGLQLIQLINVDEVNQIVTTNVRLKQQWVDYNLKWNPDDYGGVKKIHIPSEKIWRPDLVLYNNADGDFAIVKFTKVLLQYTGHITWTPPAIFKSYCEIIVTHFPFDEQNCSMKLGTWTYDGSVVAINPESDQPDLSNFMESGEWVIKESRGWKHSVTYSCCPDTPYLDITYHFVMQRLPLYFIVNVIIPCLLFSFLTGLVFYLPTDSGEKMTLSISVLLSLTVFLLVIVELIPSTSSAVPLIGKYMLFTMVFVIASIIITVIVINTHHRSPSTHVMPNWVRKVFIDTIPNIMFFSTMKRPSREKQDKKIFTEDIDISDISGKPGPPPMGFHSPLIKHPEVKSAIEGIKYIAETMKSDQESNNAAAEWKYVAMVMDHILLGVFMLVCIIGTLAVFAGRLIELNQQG
Sequence of α1β1γδ nAChR (Q07001 22-517): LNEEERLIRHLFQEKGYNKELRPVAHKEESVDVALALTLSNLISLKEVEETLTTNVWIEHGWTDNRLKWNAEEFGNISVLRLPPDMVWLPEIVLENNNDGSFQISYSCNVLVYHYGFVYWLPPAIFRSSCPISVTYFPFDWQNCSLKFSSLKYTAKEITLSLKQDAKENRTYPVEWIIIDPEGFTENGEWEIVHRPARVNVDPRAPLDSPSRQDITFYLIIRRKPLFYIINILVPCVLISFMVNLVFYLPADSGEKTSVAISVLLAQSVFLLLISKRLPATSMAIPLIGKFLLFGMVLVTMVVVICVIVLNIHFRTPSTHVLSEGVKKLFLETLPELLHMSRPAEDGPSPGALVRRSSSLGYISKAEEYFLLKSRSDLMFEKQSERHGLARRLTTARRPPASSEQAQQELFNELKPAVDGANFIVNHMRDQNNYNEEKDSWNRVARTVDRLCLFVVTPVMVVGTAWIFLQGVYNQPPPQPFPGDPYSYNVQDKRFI
Sequence of α1β1γδ nAChR (P07510 23-517): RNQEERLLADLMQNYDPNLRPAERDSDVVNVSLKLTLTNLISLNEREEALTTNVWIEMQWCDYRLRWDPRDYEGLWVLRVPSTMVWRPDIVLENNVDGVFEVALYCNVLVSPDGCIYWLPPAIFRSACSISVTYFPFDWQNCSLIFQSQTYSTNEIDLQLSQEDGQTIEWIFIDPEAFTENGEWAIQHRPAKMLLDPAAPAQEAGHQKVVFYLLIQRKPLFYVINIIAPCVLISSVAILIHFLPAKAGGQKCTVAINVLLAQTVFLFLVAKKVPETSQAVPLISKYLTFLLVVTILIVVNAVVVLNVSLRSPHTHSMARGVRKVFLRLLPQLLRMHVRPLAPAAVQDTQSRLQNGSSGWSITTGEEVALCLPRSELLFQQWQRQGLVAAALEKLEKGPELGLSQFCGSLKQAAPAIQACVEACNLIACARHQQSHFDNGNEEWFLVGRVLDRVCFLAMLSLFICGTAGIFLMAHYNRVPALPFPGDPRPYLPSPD
For test [1], the target named is muscle α1β1γδ nicotinic acetylcholine receptor (expressed in Xenopus oocytes). Put plainly: cell-based or functional assay.
The target of test [2] is T1, zebrafish acetylcholinesterase (synaptic, in muscle) (zebrafish, UniProt Q9DDE3 24-634).
T1 construct: whole, on cells; also called synaptic acetylcholinesterase

Sequence of α4β2 nAChR (P43681 29-627): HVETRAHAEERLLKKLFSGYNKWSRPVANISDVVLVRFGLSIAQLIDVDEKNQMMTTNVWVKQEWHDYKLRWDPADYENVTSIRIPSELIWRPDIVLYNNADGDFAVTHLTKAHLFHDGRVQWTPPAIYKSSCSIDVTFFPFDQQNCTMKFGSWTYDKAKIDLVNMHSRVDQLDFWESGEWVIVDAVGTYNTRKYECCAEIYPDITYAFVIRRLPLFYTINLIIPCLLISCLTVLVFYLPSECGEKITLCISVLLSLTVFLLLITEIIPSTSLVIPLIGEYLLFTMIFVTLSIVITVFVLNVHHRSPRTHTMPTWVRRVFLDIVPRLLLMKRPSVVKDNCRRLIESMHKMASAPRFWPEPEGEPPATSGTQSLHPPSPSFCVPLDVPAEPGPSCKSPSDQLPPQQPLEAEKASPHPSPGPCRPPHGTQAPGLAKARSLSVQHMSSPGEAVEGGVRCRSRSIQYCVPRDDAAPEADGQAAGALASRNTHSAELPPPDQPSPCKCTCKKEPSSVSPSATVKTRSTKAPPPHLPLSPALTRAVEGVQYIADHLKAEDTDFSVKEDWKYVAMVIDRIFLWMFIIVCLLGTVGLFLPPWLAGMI
Sequence of α4β2 nAChR (P17787 26-502): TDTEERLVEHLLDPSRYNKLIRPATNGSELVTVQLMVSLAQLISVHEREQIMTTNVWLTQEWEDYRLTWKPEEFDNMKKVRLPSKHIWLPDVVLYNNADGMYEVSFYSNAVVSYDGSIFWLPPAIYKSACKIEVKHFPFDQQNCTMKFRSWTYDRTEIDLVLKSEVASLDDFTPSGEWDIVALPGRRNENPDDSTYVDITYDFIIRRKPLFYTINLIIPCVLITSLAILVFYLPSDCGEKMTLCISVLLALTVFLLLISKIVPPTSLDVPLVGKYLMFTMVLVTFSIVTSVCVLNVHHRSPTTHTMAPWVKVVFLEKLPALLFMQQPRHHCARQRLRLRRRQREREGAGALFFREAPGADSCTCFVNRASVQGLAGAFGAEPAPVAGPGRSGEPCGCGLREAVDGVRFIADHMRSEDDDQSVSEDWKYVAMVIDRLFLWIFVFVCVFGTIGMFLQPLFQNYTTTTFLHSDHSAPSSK
Sequence of α7nAChR (P36544 23-502 limits assumed): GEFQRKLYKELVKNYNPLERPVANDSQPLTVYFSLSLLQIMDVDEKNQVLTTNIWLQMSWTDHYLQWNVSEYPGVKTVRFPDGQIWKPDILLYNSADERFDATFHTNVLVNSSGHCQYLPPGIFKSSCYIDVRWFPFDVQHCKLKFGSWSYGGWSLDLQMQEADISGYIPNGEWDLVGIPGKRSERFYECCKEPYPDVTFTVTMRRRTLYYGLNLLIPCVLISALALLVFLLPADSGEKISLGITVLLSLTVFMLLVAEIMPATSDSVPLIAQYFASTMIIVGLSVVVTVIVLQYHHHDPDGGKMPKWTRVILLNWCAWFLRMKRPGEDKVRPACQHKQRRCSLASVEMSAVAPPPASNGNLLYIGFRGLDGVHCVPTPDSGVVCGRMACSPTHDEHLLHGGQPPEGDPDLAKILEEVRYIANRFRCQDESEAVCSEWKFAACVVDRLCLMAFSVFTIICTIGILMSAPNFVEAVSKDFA
Sequence of α3β2 nAChR (P32297 32-505 limits assumed): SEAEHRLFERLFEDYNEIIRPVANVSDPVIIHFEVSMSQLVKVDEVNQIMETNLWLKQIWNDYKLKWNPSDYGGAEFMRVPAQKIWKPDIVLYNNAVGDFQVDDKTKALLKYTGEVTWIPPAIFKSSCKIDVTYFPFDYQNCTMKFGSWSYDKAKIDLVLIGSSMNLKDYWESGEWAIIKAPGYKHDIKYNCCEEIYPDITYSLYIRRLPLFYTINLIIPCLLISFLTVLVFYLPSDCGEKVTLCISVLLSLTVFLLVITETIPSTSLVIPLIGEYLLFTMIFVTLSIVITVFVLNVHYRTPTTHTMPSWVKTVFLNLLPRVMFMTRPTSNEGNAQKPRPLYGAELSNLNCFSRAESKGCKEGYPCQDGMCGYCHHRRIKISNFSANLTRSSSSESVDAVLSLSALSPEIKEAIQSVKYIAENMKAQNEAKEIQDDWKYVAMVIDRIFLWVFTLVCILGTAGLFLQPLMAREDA
Sequence of α3β2 nAChR (P17787 26-502 limits assumed): as the sequence (P17787 26-502) above

Take α-conotoxin MII: the Affinity on α3β2 nAChR is 0.5 nM.

κ-bungartotoxin: the Affinity on α4β2 nAChR is more than 0.1 µM; on α7nAChR it was 1 to 12 nM; on α1β1γδ nAChR it was 1 µM.

With α-bungarotoxin, the Affinity at α4β2 nAChR was 100 µM; at α7nAChR, 0.95 nM; at α1β1γδ nAChR, 0.0004 µM.

As for tethered α-bungarotoxin, the average peak ACh current, Xenopus oocytes (receptor alone: 8.46 +/-3.7 µA) in test [1] was determined as 0 µA.

B1: Alexa 647 conjugated Fasciculin 2 (ligand)
chain: TMCYSHTTTSRAILTNCGENSCYRKSRRHPPKMVLGRGCGCPPGDDNLEVKCCTSPDKCNY
notes: Bought reagent; also called FasII
Take B1: the binding result in test [2] is “binds”.
